Read-outs that look alike come from different tables or passages of the source. Some results are limits rather than exact numbers.

One data set concerns PL. Conditions: cited from earlier work.
In data set [1] the target is T1, α-glucosidase (AG) type I from Saccharomyces cerevisiae (Saccharomyces cerevisiae, UniProt P53341). Nature of the data set: biochemical.
The next data set addresses α-glucosidase. Conditions: cited from earlier work.
Data set [2] has as its target T2, pancreatic lipase type II (PL) from porcine pancreas (Sus scrofa, UniProt P00591).
T2 construct: pancreatic lipase type II (PL) from porcine pancreas; purchased Sigma-Aldrich L-SLBD2433V; host or cells: porcine pancreas
T2 sequence (P00591 1-450): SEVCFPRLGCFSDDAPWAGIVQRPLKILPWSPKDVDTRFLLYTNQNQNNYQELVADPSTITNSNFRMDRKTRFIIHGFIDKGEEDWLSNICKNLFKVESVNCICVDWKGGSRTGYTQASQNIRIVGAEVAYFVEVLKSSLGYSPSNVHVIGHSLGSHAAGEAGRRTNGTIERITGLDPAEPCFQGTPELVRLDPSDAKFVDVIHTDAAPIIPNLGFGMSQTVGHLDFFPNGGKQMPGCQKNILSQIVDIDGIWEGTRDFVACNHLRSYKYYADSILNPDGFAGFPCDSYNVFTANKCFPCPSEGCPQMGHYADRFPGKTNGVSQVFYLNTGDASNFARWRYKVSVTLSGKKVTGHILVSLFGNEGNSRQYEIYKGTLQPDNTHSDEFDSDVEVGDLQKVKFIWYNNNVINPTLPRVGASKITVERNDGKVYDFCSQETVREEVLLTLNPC
In words: PL inhibition assay. The format is biochemical. Conditions: for IC50: evaluated range 6.25 µM–1000 µM, mean of n = 3 ± SD.

Data set [3] deals with T2, pancreatic lipase type II (PL) from porcine pancreas. Nature of the data set: Kinetic study on PL. In kind it is biochemical. The settings on record: for Ki: substrate p-nitrophenyl dodecanoate.
The target in data set [4] is T1, α-glucosidase (AG) type I from Saccharomyces cerevisiae. In words: biochemical. The format is biochemical. The arrangement: purchased Sigma-Aldrich L-SLBX6245.
In data set [5] the target is T3, α-amylase (AA) type VI-B from porcine pancreas (Sus scrofa, UniProt P00690).
T3 sequence (P00690 16-511): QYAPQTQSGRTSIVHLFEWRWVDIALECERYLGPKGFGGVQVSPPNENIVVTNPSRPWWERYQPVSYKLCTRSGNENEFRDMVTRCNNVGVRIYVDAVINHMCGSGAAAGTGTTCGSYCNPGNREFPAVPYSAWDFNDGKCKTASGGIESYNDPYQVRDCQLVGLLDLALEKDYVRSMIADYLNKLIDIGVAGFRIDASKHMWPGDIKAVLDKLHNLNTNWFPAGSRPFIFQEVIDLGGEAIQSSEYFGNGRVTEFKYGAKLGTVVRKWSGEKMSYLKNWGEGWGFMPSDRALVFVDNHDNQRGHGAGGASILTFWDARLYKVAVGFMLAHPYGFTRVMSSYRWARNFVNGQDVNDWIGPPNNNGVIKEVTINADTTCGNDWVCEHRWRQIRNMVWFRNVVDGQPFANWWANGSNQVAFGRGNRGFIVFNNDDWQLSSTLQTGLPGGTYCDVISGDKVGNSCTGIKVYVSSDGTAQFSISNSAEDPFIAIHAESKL
Nature of the data set: AA inhibition assay. The settings on record: for IC50: α-Amylase IC50 (µM), evaluated range 6.25 µM–1000 µM, mean of n = 3 ± SD.

Data set [6] has as its target T3, α-amylase (AA) type VI-B from porcine pancreas. Nature of the data set: Kinetic study on AA. The format is biochemical. The arrangement: α-amylase (AA) type VI-B from porcine pancreas; purchased Sigma-Aldrich L-SLBP4061V; host or cells: porcine pancreas. Conditions: for Ki: substrate starch.
The subject of the next data set is α-amylase. The settings on record: cited from earlier work; for % inhibition of AA, previous studies: at a concentration of 100 µM.
For data set [7], the target named is T1, α-glucosidase (AG) type I from Saccharomyces cerevisiae.
Where [8] appears, read: ref 17, 37, read-out: IC50 against PL, previous studies.
The mark [9] stands for this setting: α-Glucosidase IC50 (µM), evaluated range 6.25 µM–1000 µM, mean of n = 3 ± SD.
[10] abbreviates: ref 39, read-out: IC50 against AG, Ryu and collaborators.
Where [11] appears, read: substrate p-nitrophenyl-α-D-glucopyranoside, read-out: α-Glucosidase Ki.
[12] abbreviates: ref 31-34, read-out: IC50 against PL.
Setting [13] is: ref 10, read-out: IC50 against AG, Li and collaborators.
Where [14] appears, read: ref 53, read-out: IC50 against AG, Vongsak and collaborators.
Where [15] appears, read: ref 31-34, read-out: IC50 against α-amylase.

T1 sequence (P53341 whole entry): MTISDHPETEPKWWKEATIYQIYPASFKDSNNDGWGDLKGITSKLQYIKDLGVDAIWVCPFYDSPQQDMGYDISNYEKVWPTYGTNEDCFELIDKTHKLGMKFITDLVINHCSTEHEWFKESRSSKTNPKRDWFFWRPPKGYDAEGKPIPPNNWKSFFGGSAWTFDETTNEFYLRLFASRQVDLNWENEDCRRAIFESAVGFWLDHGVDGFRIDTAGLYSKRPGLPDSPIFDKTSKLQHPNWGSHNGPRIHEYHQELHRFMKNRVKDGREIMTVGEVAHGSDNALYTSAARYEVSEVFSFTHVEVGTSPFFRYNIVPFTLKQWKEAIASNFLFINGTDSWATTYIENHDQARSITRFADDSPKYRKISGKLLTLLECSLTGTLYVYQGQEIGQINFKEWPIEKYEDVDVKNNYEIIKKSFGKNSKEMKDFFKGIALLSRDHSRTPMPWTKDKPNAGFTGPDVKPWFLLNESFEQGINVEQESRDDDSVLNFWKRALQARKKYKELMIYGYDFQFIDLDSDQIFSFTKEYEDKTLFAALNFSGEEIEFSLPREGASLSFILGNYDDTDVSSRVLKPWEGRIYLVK

For orientation: IC50 means the midpoint of a concentration-inhibition curve. The Ki is the equilibrium dissociation constant of an inhibitor or competing ligand from its target. As to `COc1c(O)cc2oc3cc4c(c(O)c3c(=O)c2c1CC=C(C)C)C=CC(C)(C)O4` [Compound 1, 9-hydroxycalabaxanthone], the IC50 was 12 µM in the data set on PL (setting [8]); 157 ± 2.1 µM in data set [1] (setting [9]); 34.2 µM at α-glucosidase (setting [10]); 138 ± 6.8 µM in data set [2]; over 1000 µM in data set [5]. Further, in [3], the “type of inhibition against PL (in words)” value was “non-competitive inhibitors”. The Ki in data set [3] came out at 138 µM; in data set [4] (setting [11]) it was 154 µM. In data set [4], the “type of inhibition of AG (in words)” value is reported as “uncompetitive inhibitor”. The “inhibitory activity on AA (in words)” value in data set [5] is “completely lost”.

As to `CC(C)=CCc1c(O)c(CC=C(C)C)c2oc3c(O)cccc3c(=O)c2c1O` [Compound 2, 8-deoxygartanin], the IC50 in the data set on PL (setting [8]) is 50 µM; in data set [1] (setting [9]) it was 248 ± 4 µM; at α-glucosidase (setting [10]) it was 21.5 µM; in data set [2], 326 ± 7.1 µM; in [5] it was 166 ± 4.1 µM. Moreover, the “type of inhibition against PL (in words)” value in data set [3] is reported as “non-competitive inhibitors”. The figures for the inhibition constant Ki in data set [3], in data set [6] and in [4] (setting [11]) were 326 µM, 166 µM and 248 µM, respectively. Also, the “type of inhibition on AA (in words)” value in [6] was “non-competitive type of inhibitor”.

With `CC(C)=CCc1c(O)c(CC=C(C)C)c2oc3c(O)ccc(O)c3c(=O)c2c1O` [Compound 3, gartanin], the IC50 in the data set on PL (setting [8]) is 12 µM; in data set [1] (setting [9]), 124 ± 8.2 µM; at α-glucosidase (setting [10]), 10 µM; in [2], 135 ± 1.5 µM; in [5], over 1000 µM. For the same compound, the “type of inhibition against PL (in words)” value in [3] is recorded as “uncompetitive inhibitors”. Further, the results for the Ki in [3] and in data set [4] (setting [11]) were 130 µM and 124 µM, respectively.

Regarding `COc1c(O)cc2oc3cc(O)c(CC=C(C)C)c(O)c3c(=O)c2c1CC=C(C)C` [Compound 4, α-mangostin], the IC50 was 47.3 µM in the data set with PL (setting [8]); 5 µM in the data set with PL (setting [12]); 29.6 µM on α-amylase (ref 17, read-out: IC50 against AA, previous studies); 31.6 ± 2.6 µM in data set [1]; 10 µM on α-glucosidase (setting [13]); 5 µM at α-glucosidase (setting [10]). Besides, the half-maximal inhibitory concentration (IC50) at α-glucosidase (setting [14]) was 29.2 µM; in data set [2], 50.6 ± 6.7 µM; in [5], 318 ± 4.3 µM. Also, the “% inhibition of AA, previous studies” value in the data set on α-amylase is 60%. Further, the “type of inhibition against PL (in words)” value in data set [3] is recorded as “non-competitive inhibitors”. Further, the Ki was 50.6 µM in [3], 240 µM in data set [6] and 31.6 µM in [4]. Also, the “type of inhibition on AA (in words)” value in data set [6] was “competitive type inhibitors”.

For the compound `CC(C)=CCc1c(O)cc2oc3cc(O)c(O)c(CC=C(C)C)c3c(=O)c2c1O` [Compound 5, γ-mangostin], the IC50 with PL (setting [12]) is 10 µM; in data set [1] (setting [9]), 84.7 ± 6.7 µM; at α-glucosidase (setting [13]), 5 µM; at α-glucosidase (setting [10]), 1.5 µM; on α-glucosidase (setting [14]) it was 4.2 µM; in [2], 67.1 ± 2.8 µM. For the same compound, half-maximal inhibition in data set [5] (IC50) required 333 ± 4.5 µM. Further, the “% inhibition of AA, previous studies” value in the data set with α-amylase is 67.3%. In addition, the figures for the Ki in [3], in [6] and in data set [4] were 57.2 µM, 139 µM and 84.7 µM, respectively. In addition, the “type of inhibition on AA (in words)” value in [6] is listed as “competitive type inhibitors”.

As usually defined, the melting point is the temperature, or range, at which the solid turns liquid. As for `COc1cc2oc3cc(OC)c(OC)c(CC=C(C)C)c3c(=O)c2c(O)c1CC=C(C)C` [Compound 6, fuscaxanthone C], the melting point was in the range of 118 to 120 °C. Further, the IC50 in data set [1] (setting [9]) turned out to be 33.3 ± 4.1 µM. In data set [2], 69.2 ± 4.9 µM corresponded to half-maximal inhibition (IC50). Besides, in data set [3], the “type of inhibition against PL (in words)” value is given as “mixed inhibitors” and the Ki was 69.2 µM. Moreover, in data set [6], the “type of inhibition on AA (in words)” value is listed as “competitive type inhibitors” and the inhibitory constant (Ki) is 28.6 µM. The “type of inhibition of AG (in words)” value in [4] is given as “competitive inhibitors”. Also, the Ki in [4] (setting [11]) amounted to 0.3 µM. Besides, in data set [5], the IC50 was 164.4 ± 0.9 µM.

As to `COc1c(O)cc2oc3cc4c(c(O)c3c(=O)c2c1CC=C(C)C)CCC(C)(C)O4` [Compound 7, 3-isomangostin], the figures for the IC50 in data set [1], in [2] and in data set [5] were 37.2 ± 4.1 µM, over 1000 µM and over 1000 µM, respectively. Also, the “inhibition in the catalytic activity of PL (in words)” value (from here on “inhibition … of PL (in words)”) in data set [2] is “did not cause any inhibition”. Also, the Ki in data set [4] (setting [11]) was 37.2 µM. Besides, in [5], the “inhibitory activity on AA (in words)” value is reported as “completely lost”.

`CC1(C)CCc2c(cc3oc4cc(O)c5c(c4c(=O)c3c2O)CCC(C)(C)O5)O1` [Compound 8, BR-xanthone A]: the melting point was in the range of 160 to 162 °C. Besides, the “inhibition in the catalytic activity of AG (in words)” value in data set [7] is given as “did not cause any inhibition”. This compound also gave an IC50 in data set [1] of over 1000 µM. In data set [2], the “inhibition … of PL (in words)” value is recorded as “did not cause any inhibition” and the IC50 is over 1000 µM. For the same compound, in data set [5], the “inhibitory activity on AA (in words)” value is on record as “completely lost” and the IC50 was over 1000 µM.

In the case of `COc1c(O)cc2oc3cc(O)c(CCC(C)C)c(O)c3c(=O)c2c1CCC(C)C` [Compound 9, tetrahydro-α-mangostin], the 50% inhibitory concentration (IC50) worked out at 34.2 ± 1.8 µM in data set [1], 454.6 ± 1.9 µM in data set [2] and 90.1 ± 6 µM in data set [5]. Besides, in [3], the “type of inhibition against PL (in words)” value is recorded as “mixed inhibitors”. Moreover, the Ki was found to be 405 µM in [3], 90.1 µM in data set [6] and 34.2 µM in data set [4]. In addition, in data set [6], the “type of inhibition on AA (in words)” value is “competitive type inhibitors”. For the same compound, the “type of inhibition of AG (in words)” value in [4] is on record as “competitive inhibitors”.

For the compound `CCCCCOc1cc2oc3cc(OCCCCC)c(OC)c(CC=C(C)C)c3c(=O)c2c(O)c1CC=C(C)C` [Compound 10, 3,6-di-pentoxy-α-mangostin], the “inhibition in the catalytic activity of AG (in words)” value in data set [7] is given as “did not cause any inhibition”. In addition, the IC50 in data set [1] (setting [9]), in data set [2] and in data set [5] was over 1000 µM throughout. Besides, the “inhibition … of PL (in words)” value in [2] is reported as “did not cause any inhibition”.

On to `COc1cc2oc3c(C)c(OC)c(CC=C(C)C)c(O)c3c(=O)c2c(CC=C(C)C)c1OC` [Compound 11, 3,6-di-methoxy-4-methyl-α-mangostin], for which, in [7], the “inhibition in the catalytic activity of AG (in words)” value is “did not cause any inhibition”. Besides, the concentration for half-maximal inhibition (IC50) in data set [1] (setting [9]) is over 1000 µM. The compound also registered an IC50 in [2] of 59.4 ± 3.8 µM. In addition, in data set [3], the “type of inhibition against PL (in words)” value is reported as “mixed inhibitors” and the Ki stood at 59.4 µM. Further, in [5], the “inhibitory activity on AA (in words)” value was “completely annuls the activity” and the IC50 was over 1000 µM.

Regarding `O=C(c1cc(O)ccc1O)c1c(O)cc(O)cc1O[C@@H]1O[C@H](CO)[C@@H](O)[C@H](O)[C@H]1O` [Garcimangophenone B, reference compound], the concentration for half-maximal inhibition (IC50) at α-amylase (setting [15]) is 12.2 µM.

Regarding “Garcimangophenones A [Garcimangophenone A, reference compound]”, at α-amylase (setting [15]), the half-inhibitory concentration (IC50) is 9.3 µM.

Consider mangoxanthone A [reference compound], for which the IC50 is 22.7 µM on α-amylase (setting [15]) and 29.1 µM on α-glucosidase (ref 31-34, read-out: IC50 against α-glucosidase).

Source of the values: paper PMC9144329, “Multitarget Action of Xanthones from Garcinia mangostana against α-Amylase, α-Glucosidase and Pancreatic Lipase” (Molecules, 2022).
